Experiments:
[1] = test system: theo-OFF2 element and SAH-sensing pseudoknot stimulator; assay: -1 PRF activity, theo-OFF2 plus SAH-sensing pseudoknot, wheat germ lysate; assay type: biochemical; details: theo-OFF2 fused with SAH-dependent stimulator
Description: We also fused theo-OFF2 with an SAH-dependent −1 PRF stimulator and examined the ligand-dependent −1 PRF activity in vitro using wheat germ lysate.

[2] = test system: theo-OFF2 element; assay: -1 PRF activity analysis, upstream theo-OFF2 element, wheat germ extract; details: wheat germ lysate, compared with reticulocyte lysate
[3] = test system: theo-OFF1 element (theophylline aptamer); assay: in vitro -1 PRF activity analysis, upstream theo-OFF1 element, reticulocyte lysate; details: DU177 pseudoknot stimulator, increasing amounts of theophylline
Description: The boxed nucleotides were deleted in the negative control theo-mOFF1 element.

[4] = test system: theo-ON element; assay: in vitro -1 PRF activity analysis, upstream theo-ON element, reticulocyte lysate; details: DU177 pseudoknot stimulator
[5] = test system: GlcT-OFF RNA element (RAT sequence) upstream of the slippery site; assay: in vitro -1 PRF activity analysis, upstream GlcT-OFF element, reticulocyte lysate; assay type: biochemical; details: DU177 pseudoknot stimulator, increasing amounts of protein
Description: (§1) Mfold was used to predict structures and free energies of the attenuator and anti-attenuator hairpins.
As the ribonucleic-antiterminator (RAT) sequence of Bacillus subtilis ptsGHI operon adopts an unstable internal loop conformation and can be stabilized by the binding of GlcT antiterminator protein (Langbein, I. et al, J. Mol. Biol. 293, 795-805, 1999), we designed a chimeric RNA element containing an RAT sequence (GlcT-OFF) with the 3′-side of RAT internal loop embedded in a stable hairpin stem and placed the chimeric RNA element upstream of the slippery site with a potent downstream −1 PRF stimulator (FIG. 3A). We rationalized that the engineered hairpin is the dominant conformation and serves as an upstream −1 PRF attenuator, whereas the addition of GlcT protein should disrupt the attenuator hairpin via RAT-GlcT complex formation and thus restore −1 PRF activity.
We then designed the second chimera to down-regulate the −1 PRF by the formation of an efficient attenuator hairpin promoted by the same RNA-protein interactions (FIG. 3A).

[6] = test system: GlcT-ON RNA element; assay: in vitro -1 PRF activity analysis, upstream GlcT-ON element, reticulocyte lysate; assay type: biochemical; details: DU177 pseudoknot stimulator, increasing amounts of protein
Description: as §1
Therefore, the GlcT-ON RNA element is embedded with three potential RNA motifs; that is, an RAT internal loop, an anti-attenuator hairpin and an efficient −1 PRF attenuator hairpin with the component of the anti-attenuator hairpin being overlapped with the other two motifs. Without the GlcT protein, this anti-attenuator hairpin might be the dominant conformation. Upon GlcT protein addition, the equilibrium might be driven by RNA-protein interaction to disrupt the anti-attenuator hairpin stem and thus release its 3′-side to facilitate the formation of an efficient −1 PRF attenuator hairpin.
Together, these proof-of-principle experiments indicate that −1 PRF activity can be regulated in-trans via a set of RNA-protein interactions designed to control the formation of an upstream −1 PRF attenuation hairpin.

Molecule: Nc1ncnc2c1ncn2[C@@H]1O[C@H](CSCC[C@H](N)C(=O)O)[C@@H](O)[C@H]1O [SAH]
- -1 frameshifting efficiency in wheat germ lysate [1]: only mildly increased

Molecule: Cn1c(=O)c2[nH]cnc2n(C)c1=O [theophylline]
- dynamic range of theophylline-dependent -1 PRF activity, theo-OFF2 [2]: even higher dynamic range
- in vitro -1 PRF activity of reporter harboring theo-OFF1 [3]: up-regulated
- -1 PRF activity of reporter with theo-ON [4]: down-regulation

B1: GlcT protein: GlcT antiterminator protein binding the RAT sequence of Bacillus subtilis ptsGHI operon (protein, UniProt O31691 1-281, looked up)
PtsGHI operon antiterminator: MNGSFTVKKVLNNNVLIASHHKYSEVVLIGKGIGFGKKQDDVIEDKGYDKMFILKDEKEQKQFKKLLDYVDEKLVDISNDVIYHISNRTNHSLNEHIHIALTDHIAFAIKRQQQGFDMKNPFLMETQSLYPEEYQIAKEVIDMINEKAGLCLPEGEIGFIALHIHSALTNRPLSEVNQHSQLMAQLVEVIEDSFQMKVNKESVNYLRLIRHIRFTIERIKKEEPTKEPEKLMLLLKNEYPLCYNTAWKLIKILQQTLKKPVHEAEAVYLTLHLYRLTNKIS
- in vitro -1 PRF efficiency of reporter containing GlcT-OFF [5]: up-regulated
- in vitro -1 PRF activity of reporter containing GlcT-ON [6]: repressed
